This note sets out measurements from patent US20070191490A1, “Withacnistin compounds for treatment of cancer” (priority 2006, published 2007).

One experiment relates to A549 tumors. Briefly: TUNEL immunohistochemistry of A549 tumor sections. Type of experiment: in vivo, nude mice. The following applies: 1 mg/kg/day, control 0.4±0.1%. The method, then:
TUNEL immunohistochemistry. Tumors were harvested, […], and dewaxed as described for P-STAT3 immunohistochemistry. Tissue sections (5 μm) were digested for 10 minutes with 25 μg/ml proteinase K in PBS and then washed thoroughly. Peroxidases were quenched with 3% hydrogen peroxide in PBS and washed. Sections were equilibrated with equilibration buffer, then incubated in 30% TdT enzymes/70% digoxigenin nucleotidyl reaction buffer for 1 hour at 37° C. in a humidified chamber. The labeling reaction was stopped in stop/wash buffer with moderate shaking. Slides then were placed on the Dako Autostainer and incubated with antidigoxigenin-peroxidase (DakoCytomation California, Inc.) for 30 minutes using DAB substrate. Sections were counterstained with methyl green (Vector Laboratories), dehydrated through ascending alcohol, cleared, and mounted with resinous mounting medium. The quantification was performed by counting both the TUNEL-positive and -negative cells on slides representative of eight tumors and significance was determined by Student's t-test.
(§1) To determine whether phosphotyrosine STAT3 is targeted by withacnistin in vivo, and to determine if the results seen in cell culture concerning induction of apoptosis were occurring in tumors from animals treated with withacnistin, on the termination day of the A549 antitumor experiment, tumors from animals treated with Cuc A, Cuc I, and the withacnistin mixture, as well as vehicle control, were extracted and fixed in 10% neutral-buffered formalin and then processed into paraffin blocks for tissue sectioning. These tissue sections were stained separately with either TUNEL for determination of apoptosis, or phosphotyrosine STAT3 to determine if the signaling protein is inhibited in the tumors.

For another experiment, the system named is phosphotyrosine STAT3. Briefly: P-STAT3 immunohistochemistry of A549 tumor sections. The following applies: 1 mg/kg/day; for P-STAT3 positive cells: termination day, control 76.5±1.4%. Type of experiment: in vivo, nude mice. How it is done:
P-STAT3 immunohistochemistry. On the termination day of the A549 antitumor experiment, tumors were extracted and fixed in 10% neutral-buffered formalin for 6 hours. After fixation, the tissue samples were processed into paraffin blocks. Tissue sections (5 μm) were dewaxed with xylene and rehydrated through descending alcohol to deionized water and then placed in PBS. Antigens were retrieved briefly with citrate buffer, pH 6.0, in a microwave followed by a mild trypsinization (0.025% trypsin in 50 mM Tris buffer containing 0.05% calcium chloride, pH 7.6). From this point, all steps were carried out in a DAKO Autostainer (DakoCytomation California, Inc., Carpinteria, Calif., USA). Sections were rinsed three times in TBS-Tween buffer, pH 7.6, then endogenous peroxidases were quenched with 3% hydrogen peroxide and nonspecific binding with 2% normal goat serum in 3% BSA/PBS. Sections then were incubated overnight with 1:400 phospho-STAT3 (Cell Signaling Technologies) at 4° C. in a humidified chamber. Detection was performed using the Elite ABC Rabbit kit (Vector Laboratories) and DAB chromogen (DakoCytomation California, Inc.) according to the manufacturer's instructions. Slides were counterstained for 20-30 seconds with modified Mayer's hematoxylin, dehydrated through ascending alcohol, cleared, and mounted with resinous mounting medium. Quantification was performed by counting both the phospho-STAT3-positive and -negative cells on slides representative of eight tumors and significance was determined by Student's t-test.
as §1

The next experiment deals with JAK2. Put plainly: Total JAK2 levels in A549 cells. The following applies: 10 μM, data not shown. Format: cell-based, human. How it is done:
As further support of the specific antiphosphotyrosine STAT3, but not antiphosphotyrosine JAK2, activity of withacnistin, A549 cells, as well as two breast carcinoma cell lines (MDA-MB-435 and MDA-MB-468) that also express constitutively activated JAK2 and STAT3, were treated with the withacnistin mixture at various concentrations, and determined IC50 values of inhibition of STAT3 and JAK2 activation. […] In all three cell lines, JAK2 activation was not inhibited at withacnistin concentrations as high as 10 μM. […] Thus, in all three cell lines, withacnistin (Wit) inhibits specifically STAT3 but not JAK2 activation and Cuc A inhibits JAK2 but not STAT3 activation whereas Cuc I inhibits the activation of both STAT3 and JAK2.

The test system of the next experiment is phosphotyrosine-JAK2. Put plainly: Inhibition of phosphotyrosine-JAK2 levels in tumor cell lines (Western blotting). Format: cell-based, human. The following applies: for levels of P-JAK2: 10 μM, 4 hours; for IC50: Wit tested as withacnistin mixture; for P-JAK2 levels: A549 cells (FIG. 8A). How it is done:
(§2) Western blotting. Treated cell samples were lysed in 30 mM HEPES, pH 7.5, 10 mM NaCl, 5 mM MgCl2, 25 mM NaF, 1 mM EGTA, 1% Triton X-100, 10% glycerol, 2 mM sodium orthovanadate, 10 μg/ml aprotinin, 10μ/ml soybean trypsin inhibitor, 25 μg/ml leupeptin, 2 mM PMSF, and 6.4 mg/ml p-nitrophenylphosphate. Phospho-STAT3, phospho-AKT, phospho-Src, and phospho-p42/p44 MAPK antibodies were obtained from Cell Signaling Technologies (Cambridge, Mass., USA). Phospho-JNK and whole STAT3 antibodies were purchased from Santa Cruz Biotechnology (Santa Cruz, Calif., USA); phospho-JAK2 antibody came from Upstate Biotechnology (Lake Placid, N.Y., USA). Membranes were blocked in either 5% milk in phosphate-buffered saline (PBS), pH 7.4, containing 0.1% Tween-20 (PBS-T) or 1% BSA in tris-buffered saline (TBS), pH 7.5, containing 0.1% Tween-20 (TBS-T). Phospho-specific antibodies (excepting P-MAPK and P-JNK) were incubated in 1% BSA in TBS-T while all other antibodies were diluted in 5% milk in PBS-T for either 2 h at room temperature or overnight at 4° C. HRP-conjugated secondary antibodies (Jackson ImmunoResearch, West Grove, Pa., USA) were diluted in 5% milk in either PBS-T or TBS-T at 1:1000 dilution for 1 h at room temperature. Western blots were visualized using enhanced chemiluminescence.
(§3) To this end, A549 cells (a human non-small-cell lung carcinoma line) were treated with either vehicle, cucurbitacin analogs A, B, E, or I, or withacnistin mixture (10 ∥M) for 4 hours and the cell lysates processed for Western blotting with antiphosphotyrosine STAT3 (Y705) antibody or antiphosphotyrosine JAK2 (Y1007, Y1008) antibody as described under Materials and Methods.
(§4) As further support of the specific antiphosphotyrosine STAT3, but not antiphosphotyrosine JAK2, activity of withacnistin, A549 cells, as well as two breast carcinoma cell lines (MDA-MB-435 and MDA-MB-468) that also express constitutively activated JAK2 and STAT3, were treated with the withacnistin mixture at various concentrations, and determined IC50 values of inhibition of STAT3 and JAK2 activation.

The test system of a further experiment is phosphotyrosine-STAT3. Briefly: Inhibition of phosphotyrosine-STAT3 levels in tumor cell lines (Western blotting). Format: cell-based, human. The following applies: for levels of P-STAT3: 10 μM, 4 hours; for IC50: Wit tested as withacnistin mixture; for potency compared with the withacnistin mixture (P-STAT3 suppression): A549 and MDA-MB-468 cells; for P-STAT3 levels: A549 cells (FIG. 8A). How it is done:
as §2, §3, §4
For orientation: In western blotting, separated proteins are transferred to a membrane and probed.

“Also recorded” adds a separate entry of the source.

Turning to `CC(=O)OC(C)(C)/C=C/C(=O)[C@](C)(O)[C@H]1[C@H](O)C[C@@]2(C)[C@@H]3CC=C4[C@@H](C[C@H](O)C(=O)C4(C)C)[C@]3(CO)C(=O)C[C@]12C` [Cuc A, cucurbitacin A], the TUNEL-positive cells with A549 tumors came to 0.3±0.2%. For the same molecule, the “inhibition of phosphotyrosine-STAT3 compared to vehicle control” value (“inhibition … compared to vehicle control” below) in the experiment on phosphotyrosine STAT3 was “no inhibition”. This molecule yielded a P-STAT3 positive cells in the experiment on phosphotyrosine STAT3 of 80.8±1.8%. Further, the “total JAK2 levels” value in the experiment on JAK2 was “none of the three compounds affects”. In the experiment on phosphotyrosine-JAK2 (A549 cells), the “levels of P-JAK2” value is on record as “suppressed; also recorded: potently inhibited”. Moreover, the IC50 (usually the concentration that gives 50% inhibition) with phosphotyrosine-JAK2 (A549 cells) was 1500 ± 700 nM; in the experiment on phosphotyrosine-JAK2 (MDA-MB-435 cells), 650 ± 50 nM; in the experiment with phosphotyrosine-JAK2 (MDA-MB-468 cells), 860 nM; in the experiment with phosphotyrosine-STAT3 (A549 cells) it was > 10000 nM; in the experiment with phosphotyrosine-STAT3 (MDA-MB-435 cells) it was > 10000 nM; in the experiment with phosphotyrosine-STAT3 (MDA-MB-468 cells) it was > 10000 nM. For the same molecule, the “levels of P-STAT3” value in the experiment on phosphotyrosine-STAT3 (A549 cells) is given as “had no effect; also recorded: little inhibitory activity”.
`CC(=O)OC[C@]12CC[C@H]3[C@@H](C[C@H]4O[C@]45[C@@H](O)C=CC(=O)[C@]35C)[C@@H]1CC[C@@H]2[C@H](C)[C@H]1CC(C)=C(C)C(=O)O1` [withacnistin]: the TUNEL-positive cells with A549 tumors was 14.3±2.7%. The “inhibition … compared to vehicle control” value in the experiment with phosphotyrosine STAT3 is given as 70.5%. Moreover, the P-STAT3 positive cells in the experiment with phosphotyrosine STAT3 is listed as 22.6±7.3%. In addition, the “total JAK2 levels” value in the experiment on JAK2 was “none of the three compounds affects”. Besides, in the experiment on phosphotyrosine-JAK2, the P-JAK2 levels entry is recorded as “but not P-JAK2”. In addition, the 50% inhibitory concentration (IC50) in the experiment with phosphotyrosine-JAK2 (A549 cells) was > 10000 nM; with phosphotyrosine-JAK2 (MDA-MB-435 cells) it was > 10000 nM; in the experiment with phosphotyrosine-JAK2 (MDA-MB-468 cells), > 10000 nM; with phosphotyrosine-STAT3 (A549 cells) it was 3700 ± 1700 nM; in the experiment on phosphotyrosine-STAT3 (MDA-MB-435 cells), 900 ± 600 nM; with phosphotyrosine-STAT3 (MDA-MB-468 cells) it was 1400 ± 700 nM. In addition, the P-STAT3 entry in the experiment on phosphotyrosine-STAT3 (A549 and MDA-MB468 cells, 4-hour treatment (FIGS. 7A, 7B)) is “inhibit”. Further, the figures for the “potency compared with the withacnistin mixture (P-STAT3 suppression)” value in the experiment on phosphotyrosine-STAT3 (listed as W) and in the experiment on phosphotyrosine-STAT3 (listed as pure withacnistin) were “slightly more potent than WM” and “more potent than the withacnistin mixture”, respectively. In the experiment with phosphotyrosine-STAT3, the P-STAT3 levels entry was “suppressed”.
Molecule `CC(C)(O)/C=C/C(=O)[C@](C)(O)[C@H]1[C@H](O)C[C@@]2(C)[C@@H]3CC=C4[C@@H](C=C(O)C(=O)C4(C)C)[C@]3(C)C(=O)C[C@]12C` [Cuc I, cucurbitacin I] had a TUNEL-positive cells in the experiment on A549 tumors of 10.5±3.0%. For the same molecule, the “inhibition … compared to vehicle control” value with phosphotyrosine STAT3 is recorded as 28.5%. In the experiment with phosphotyrosine STAT3, the P-STAT3 positive cells is on record as 54.7±4.5%. Also, the “total JAK2 levels” value with JAK2 is listed as “none of the three compounds affects”. Besides, in the experiment on phosphotyrosine-JAK2, the P-JAK2 levels result is “suppressed the levels of both”. In addition, the “levels of P-JAK2” value in the experiment with phosphotyrosine-JAK2 (A549 cells) is recorded as “inhibited”. In addition, the IC50 with phosphotyrosine-JAK2 (A549 cells) came out at 250 ± 90 nM; in the experiment with phosphotyrosine-JAK2 (MDA-MB-435 cells), 180 ± 70 nM; in the experiment on phosphotyrosine-JAK2 (MDA-MB-468 cells), 400 ± 260 nM; in the experiment with phosphotyrosine-STAT3 (A549 cells) it was 800 ± 700 nM; with phosphotyrosine-STAT3 (MDA-MB-435 cells) it was 4600 ± 1900 nM; in the experiment on phosphotyrosine-STAT3 (MDA-MB-468 cells), 7500 ± 1500 nM. Also, in the experiment with phosphotyrosine-STAT3, the P-STAT3 levels result is recorded as “suppressed the levels of both”. Further, the “levels of P-STAT3” value with phosphotyrosine-STAT3 (A549 cells) is given as “inhibited”.
